Reference: patent US11970474B2, “Substituted benzodiazoles and use thereof in therapy” (THOMAS HELLEDAYS STIFTELSE FÖR MEDICINSK FORSKNING, priority 2018, dated 2024)
Read-outs that look alike come from different tables or passages of the source.

Key:
OGG1 = OGG1 (Homo sapiens (Human), UniProt O15527); test: In vitro OGG1 activity assay; type: biochemical; conditions: 800 pM OGG1 enzyme, 2 nM human APEX1, 10 nM 8-oxoA:C substrate
Summary of the method: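 Read-out is fluorescein fluorescence, with compounds in DMSO added first, then enzyme and substrate. OGG1 excises its substrate base from a quenched fluorophore-labelled duplex, and surplus APEX1 cuts the resulting apurinic site. The duplex then melts and fluorescence rises in proportion to glycosylase activity.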

CCL2 = test: Mouse CCL2 assay in MLE12 cells; type: cell-based; conditions: MLE12 cells, TNF-α 20 ng/ml, supernatant after 30 hours, HTRF, read-out: CCL2 (EC50)
Summary of the method: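 CCL2 in supernatants was quantified by two-antibody HTRF FRET, read at 620 and 665 nm after overnight RT incubation, with IC50 derived from delta ratios. Cells were SV40-transformed mouse MLE12, treated with duplicate 6-point compound series for 1 h before 30 h TNF-α (20 ng/ml final) stimulation.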

MLE12 cells = test: Cell viability assay in MLE12 cells (resazurin); type: cell-based, mouse; conditions: TNF-α 20 ng/ml, resazurin added after 24 hours culture
Summary of the method: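 MLE12 cells (7500 cells/well) were seeded onto 11-point duplicate compound dose-responses, with TNF-α (final 20 ng/ml) added after 1 hour at 37° C. After 24 hours, resazurin was added for 6 hours and resorufin fluorescence read (ex544 nm/em595 nm). EC50 values were calculated by curve fitting.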

OGG1, sequence (O15527 whole entry): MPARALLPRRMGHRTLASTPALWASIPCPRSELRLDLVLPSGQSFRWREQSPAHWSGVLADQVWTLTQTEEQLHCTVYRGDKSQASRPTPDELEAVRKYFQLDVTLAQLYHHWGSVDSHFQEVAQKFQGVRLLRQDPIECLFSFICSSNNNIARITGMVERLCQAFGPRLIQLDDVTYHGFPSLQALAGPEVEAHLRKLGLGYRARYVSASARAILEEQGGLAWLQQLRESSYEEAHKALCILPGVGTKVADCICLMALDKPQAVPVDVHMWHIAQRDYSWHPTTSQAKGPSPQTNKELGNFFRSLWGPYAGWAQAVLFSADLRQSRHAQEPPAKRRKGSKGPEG

Row | SMILES | IC50 (OGG1) | EC50 (CCL2; Mus musculus, MLE12, 30 h) | EC50 (CCL2) | IC50 (MLE12 cells; Mus musculus, MLE12, 24 h) | IC50 (MLE12 cells)
1 | CN(C)CCNC(=O)c1cnn(-c2cccc3c2[nH]c(=O)n3C2CCN(C(=O)Nc3ccc(I)cc3)CC2)c1 [Example 89, 4-(4-(4-((2-(Dimethylamino)ethyl)carbamoyl)-1H-pyrazol-1-yl)-2-oxo-2,3-dihydro-1H-benzo[d]imidazol-1-yl)-N-(4-iodophenyl)piperidine-1-carboxamide 2,2,2-trifluoroacetate] | 0.09 µM | 47.1 µM | – | 25.1 µM | –
2 | COc1cc(NC(=O)[C@H]2CC[C@@H](n3c(=O)[nH]c4c(OCCN(C)C)cccc43)CC2)ccc1C [Example 304, Cis-4-{4-[2-(dimethylamino)ethoxy]-2-oxo-2,3-dihydro-1H-1,3-benzodiazol-1-yl}-N-(3-methoxy-4-methylphenyl)cyclohexane-1-carboxamide] | 0.0038 µM | 10.6 µM | – | 8.27 µM | –
3 | COc1cc(NC(=O)[C@H]2CC[C@@H](n3c(=O)[nH]c4c(C(=O)NCc5ncccn5)cccc43)CC2)ccc1C [Example 276, 2-Oxo-N-[(pyrimidin-2-yl)methyl]-1-[cis-4-[(3-methoxy-4-methylphenyl)carbamoyl]cyclohexyl]-2,3-dihydro-1H-1,3-benzodiazole-4-carboxamide] | 0.0029 µM | 54 µM | – | 16.9 µM | –
4 | O=C(Nc1ccc(Cl)c(Cl)c1)N1CCC(n2c(=O)[nH]c3c(-c4cncnc4)cccc32)CC1 [Example 37, N-(3,4-dichlorophenyl)-4-[2-oxo-4-(pyrimidin-5-yl)-2,3-dihydro-1H-1,3-benzodiazol-1-yl]piperidine-1-carboxamide] | 1.59 µM | 17.4 µM | – | 7.03 µM | –
5 | COc1cc(NC(=O)[C@H]2CC[C@@H](n3c(=O)[nH]c4c(N5CCC(NC(C)=O)C5)cccc43)CC2)ccc1C (stereo partly drawn) [Example 313, Cis-4-[4-(3-acetamidopyrrolidin-1-yl)-2-oxo-2,3-dihydro-1H-1,3-benzodiazol-1-yl]-N-(3-methoxy-4-methylphenyl)cyclohexane-1-carboxamide] | 0.0213 µM | 35.1 µM | – | 19.5 µM | –
6 | COc1cc(NC(=O)[C@H]2CC[C@@H](n3c(=O)[nH]c4c(NC(=O)CN5CCOCC5)cccc43)CC2)ccc1C [Example 285, Cis-N-(3-methoxy-4-methylphenyl)-4-{4-[2-(morpholin-4-yl)acetamido]-2-oxo-2,3-dihydro-1H-1,3-benzodiazol-1-yl}cyclohexane-1-carboxamide] | 0.0451 µM | > 33 µM | – | 15.9 µM | –
7 | COc1cc(NC(=O)[C@H]2CC[C@@H](n3c(=O)[nH]c4cc(C#N)ccc43)CC2)ccc1C [Example 238, Cis-4-(5-cyano-2-oxo-2,3-dihydro-1H-1,3-benzodiazol-1-yl)-N-(3-methoxy-4-methylphenyl)cyclohexane-1-carboxamide] | 0.0409 µM | 27.1 µM | – | 9.18 µM | –
8 | COc1cc(NC(=O)[C@H]2CC[C@@H](n3c(=O)[nH]c4c(C(=O)NCCN(C)C)cccc43)CC2)ccc1C [Example 228, N-[2-(Dimethylamino)ethyl]-2-oxo-1-[cis-4-[(3-methoxy-4-methylphenyl)carbamoyl]cyclohexyl]-2,3-dihydro-1H-1,3-benzodiazole-4-carboxamide] | 0.00015 µM | 20.8 µM | 11.2 µM | 16.4 µM | 10.5 µM
9 | COc1cc(NC(=O)N2CCC(n3c(=O)[nH]c4c(Br)cccc43)CC2)ccc1Cl [Example 77, 4-(4-Bromo-2-oxo-2,3-dihydro-1H-1,3-benzodiazol-1-yl)-N-(4-chloro-3-methoxyphenyl)piperidine-1-carboxamide] | 0.358 µM | 21.2 µM | – | 7.4 µM | –
10 | COc1cc(NC(=O)N2C3CCC2CC(n2c(=O)[nH]c4c(-c5ccc(CO)nc5)cccc42)C3)ccc1C (stereo not drawn) [Example 92, 3-{4-[6-(Hydroxymethyl)pyridin-3-yl]-2-oxo-2,3-dihydro-1H-1,3-benzodiazol-1-yl}-N-(3-methoxy-4-methylphenyl)-(endo)-8-azabicyclo[3.2.1]octane-8-carboxamide] | 0.084 µM | 38.8 µM | – | 13.7 µM | –
11 | COc1cc(NC(=O)[C@H]2CC[C@@H](n3c(=O)[nH]c4c(N5CCC(N)C5)cccc43)CC2)ccc1C (stereo partly drawn) [Example 282, Cis-4-[4-(3-aminopyrrolidin-1-yl)-2-oxo-2,3-dihydro-1H-1,3-benzodiazol-1-yl]-N-(3-methoxy-4-methylphenyl)cyclohexane-1-carboxamide] | 0.0101 µM | 28.6 µM | – | 27.5 µM | –
12 | COc1cc(NC(=O)[C@H]2CC[C@@H](n3c(=O)[nH]c4c(NC(=O)C5CNCCO5)cccc43)CC2)ccc1C (stereo partly drawn) [Example 289, N-{2-Oxo-1-[cis-4-[(3-methoxy-4-methylphenyl)carbamoyl]cyclohexyl]-2,3-dihydro-1H-1,3-benzodiazol-4-yl}morpholine-2-carboxamide] | 0.0517 µM | 32.1 µM | – | 24.5 µM | –
13 | COc1cc(NC(=O)[C@H]2CC[C@@H](n3c(=O)[nH]c4c(C(=O)N5CCC[C@H]5CN5CCCC5)cccc43)CC2)ccc1C [Example 271, Cis-N-(3-methoxy-4-methylphenyl)-4-{2-oxo-4-[(2S)-2-[(pyrrolidin-1-yl)methyl]pyrrolidine-1-carbonyl]-2,3-dihydro-1H-1,3-benzodiazol-1-yl}cyclohexane-1-carboxamide] | 0.056 µM | 9.45 µM | – | 4.65 µM | –

The next lines start with results.

Row | IC50 (OGG1) | EC50 (CCL2; Mus musculus, MLE12, 30 h) | EC50 (CCL2) | SMILES | IC50 (MLE12 cells; Mus musculus, MLE12, 24 h) | IC50 (MLE12 cells)
14 | 0.0389 µM | 30.2 µM | – | O=c1[nH]c2c(Br)cccc2n1[C@H]1CC[C@@H](C(=O)Nc2ccc3c(c2)OCCO3)CC1 [Example 197, Cis-4-(4-bromo-2-oxo-2,3-dihydro-1H-1,3-benzodiazol-1-yl)-N-(2,3-dihydro-1,4-benzodioxin-6-yl)cyclohexane-1-carboxamide] | 19.5 µM | –
15 | 0.012 µM | 26.5 µM | – | COc1ccc(NC(=O)[C@H]2CC[C@@H](n3c(=O)[nH]c4c(Br)cccc43)CC2)cc1C [Example 126, (Cis)-4-(4-bromo-2-oxo-2,3-dihydro-1H-1,3-benzodiazol-1-yl)-N-(4-methoxy-3-methylphenyl)cyclohexane-1-carboxamide] | 15.7 µM | –
16 | 0.676 µM | 39.2 µM | – | O=c1[nH]c2c(Br)cccc2n1[C@H]1CC[C@@H](C(=O)Nc2ccc(Cl)cc2Cl)CC1 [Example 131, (Cis)-4-(4-bromo-2-oxo-2,3-dihydro-1H-1,3-benzodiazol-1-yl)-N-(2,4-dichlorophenyl)cyclohexane-1-carboxamide] | 17.4 µM | –
17 | 0.0275 µM | 24.7 µM | – | COc1cc(NC(=O)[C@H]2CC[C@@H](n3c(=O)[nH]c4c(NCCN(C)C)cccc43)CC2)ccc1C [Example 280, Cis-4-(4-{[2-(dimethylamino)ethyl]amino}-2-oxo-2,3-dihydro-1H-1,3-benzodiazol-1-yl)-N-(3-methoxy-4-methylphenyl)cyclohexane-1-carboxamide] | 16.6 µM | –
18 | 0.081 µM | 25.6 µM | – | COc1c(F)cc(NC(=O)[C@H]2CC[C@@H](n3c(=O)[nH]c4c(Br)cccc43)CC2)cc1F [Example 160, (Cis)-4-(4-bromo-2-oxo-2,3-dihydro-1H-1,3-benzodiazol-1-yl)-N-(3,5-difluoro-4-methoxyphenyl)cyclohexane-1-carboxamide] | 8.18 µM | –
19 | 0.0351 µM | 18.2 µM | – | O=c1[nH]c2c(Br)cccc2n1[C@H]1CC[C@@H](C(=O)Nc2ccc(O)c(Cl)c2)CC1 [Example 201, Cis-4-(4-bromo-2-oxo-2,3-dihydro-1H-1,3-benzodiazol-1-yl)-N-(3-chloro-4-hydroxyphenyl)cyclohexane-1-carboxamide] | 10.4 µM | –
20 | 0.00583 µM | 42.7 µM | – | COC(=O)c1cccc2c1[nH]c(=O)n2[C@H]1CC[C@@H](C(=O)Nc2ccc(C)c(OC)c2)CC1 [Example 258, Methyl 2-oxo-1-[cis-4-[(3-methoxy-4-methylphenyl)carbamoyl]cyclohexyl]-2,3-dihydro-1H-1,3-benzodiazole-4-carboxylate] | 11.3 µM | –
21 | 0.526 µM | 5.25 µM | – | COC(=O)c1cc(NC(=O)[C@H]2CC[C@@H](n3c(=O)[nH]c4c(Br)cccc43)CC2)ccc1OC [Example 151, Methyl 2-methoxy-5-[(cis)-4-(4-bromo-2-oxo-2,3-dihydro-1H-1,3-benzodiazol-1-yl)cyclohexaneamido]benzoate] | 17.1 µM | –
22 | 0.0272 µM | 15.2 µM | – | Cc1ccc(NC(=O)[C@H]2CC[C@@H](n3c(=O)[nH]c4c(Br)cccc43)CC2)cc1O [Example 221, Cis-4-(4-bromo-2-oxo-2,3-dihydro-1H-1,3-benzodiazol-1-yl)-N-(3-hydroxy-4-methylphenyl)cyclohexane-1-carboxamide] | 7.84 µM | –
23 | 1.22 µM | 28.7 µM | – | O=c1[nH]c2c(Br)cccc2n1[C@H]1CC[C@@H](C(=O)Nc2ccccc2)CC1 [Example 127, (Cis)-4-(4-bromo-2-oxo-2,3-dihydro-1H-1,3-benzodiazol-1-yl)-N-phenylcyclohexane-1-carboxamide] | 16.2 µM | –
